Values quoted from earlier work as cited in patent US20250121105A1, “METHODS FOR TREATING CANCER USING COMBINATIONS OF PARP INHIBITORS AND ANTIBODY RADIOCONJUGATES” (ACTINIUM PHARMACEUTICALS, INC., priority 2019, published 2025).
Where two headings read alike, the source gives them in different places.

Experiments:
[1] = test system: glioblastoma cancer cells; conditions: veliparib (ABT-888) plus ionizing radiation (IR)
[2] = order of magnitude only, stated in the background

Row | IC50 values (PARP; [2]) | IC50 values (PARP) | SMILES | sensitivity of glioblastoma cancer cells to PARPi with ionizing radiation [1]
1 | nanomolar range |  | NC(=O)c1cccc2cn(-c3ccc([C@@H]4CCCNC4)cc3)nc12 [niraparib] | 
2 | nanomolar range |  | CNCc1ccc(-c2[nH]c3cc(F)cc4c3c2CCNC4=O)cc1 [rucaparib] | 
3 |  | nanomolar range | C[C@]1(c2nc3c(C(N)=O)cccc3[nH]2)CCCN1 [veliparib] | IR sensitizes glioblastoma cancer cells to PARPi

Row | SMILES | IC50 values (PARP; [2]) | IC50 values (PARP) | sensitivity of glioblastoma cancer cells to PARPi with ionizing radiation [1]
4 | Cn1ncnc1[C@H]1c2n[nH]c(=O)c3cc(F)cc(c23)N[C@@H]1c1ccc(F)cc1 [talazoparib] | picomolar range |  | 
